Reference: PMC9858543, “Design, synthesis and evaluation of 2, 6, 8-substituted Imidazopyridine derivatives as potent PI3Kα inhibitors” (Journal of Enzyme Inhibition and Medicinal Chemistry, 2023)
Like-named read-outs stand apart in the source and are kept apart here.

Tests used:
NCI-H460 = assay: Cell proliferation assay (CellTiter-Glo), NCI-H460; assay type: cell-based; conditions: Homo sapiens, 72 h exposure, mean ± SD of two experiments
Method: (§1) Given the desirable enzyme activity profile, these compounds were further assayed for their antiproliferative activities against five independent human tumour cell line collections harbouring PIK3CA mutation, including human ovarian cancer cell line SKOV-3, human breast cancer T47D and MCF-7, human lung cancer H1975 and H460. […] In general, the cellular activity of tested derivatives corrected with their effects on kinase activity.
(§2) All target compounds were evaluated for antiproliferative potency against SKOV-3, T47D,NCI-H1975, NCI-H460,and MCF-7 tumour cell lines using a CellTiter-Glo® Luminescent Cell Viability Assay. The human tumour cell lines used were obtained from the ATCC or Shanghai ZhongQiaoXinZhou Biotech. All the mediums and FBS were Gibco. T47D, H1975 and NCI-H460 tumour cells were cultured in RPMI1640 medium supplemented with 10% FBS. SKOV-3 was cultured in McCoy’s 5 A medium supplemented with 10%FBS. The day before treatment with compounds, cells were seeded at a density of 2000 or 5000 in each well of a 96-well plate. The tumour cells were then treated with 3-fold serial diluted compound or DMSO control in the incubator at 37 °C and 5% CO2 for 3 days, prior to the addition of CellTiter-Glo reagents (Promega) and reading of luminescence using a PerkinElmer Envision plate reader. Data were analysed using GraphPad Prism 7.0.

PI3Kα = target: T1, PI3Kα (Homo sapiens, UniProt P42336); assay: In vitro PI3Kα enzymatic assay (ADP-Glo / Kinase-Glo, ATP 25 μM); assay type: biochemical; conditions: ATP 25 μM
T1 construct: purchased Invitrogen
Method: To screen the inhibitory activity of the target compounds against PI3Kα, the Kinase-Glo™ assay with ATP at 25 μM was utilised with PIK-75 as positive control. We chose to explore the SARs at three positions on the Imidazo[1,2-a]pyridine core. To start with, a set of 8-position modifications were prepared while keeping the morpholinyl amide substituent on 2-position fixed, since it allowed quick structure − activity profiling via coupling reactions of bromide with aryl borates or boronic acids. […] We then turned our attention back to the phenyl substituents.
Briefly, the compound, PI3K enzyme (PI3Kα from Invitrogen), the PIP2 (Life Technologies) substrate, and ATP (25 μM, Sigma) were diluted in kinase buffer to the indicated concentrations. The assay plate was covered and incubated at room temperature for 1 h. Then, the Kinase-Glo reagent (Promega) was added to the PI3Kα plate to stop the reaction, mixed briefly with centrifuge, shaken slowly on the shaker and then equilibrate for 120 min. Finally, add Kinase detection reagent to each well, shake 1 min, equilibrate for 30 min before reading on a plate reader for luminescence. The data were collected on Envision and presented in Excel. IC50 values were calculated from the inhibition curves.

[1] = Parallel artificial membrane permeability assay (Egg-PAMPA); assay type: in vitro ADME; conditions: incubation 4 h; for Papp at 4 h, 10 μM: PAMPA
Method: 10.0 μM donor solution (5% DMSO) was prepared by diluting of working solution with PBS. The donor solution was added to each well of the donor plate, whose PVDF membrane was precoated with 5 µL of 1% lecithin/dodecane mixture. Duplicates were prepared.Then, PBS was added to each well of the PTFE acceptor plate. The donor plate and acceptor plate were combined and incubated for 4 h at room temperature with shaking at 300 rpm. Acceptor samples and donor samples were prepared and analysed by LC-MS/MS.

CYP2C9 = target: T2, CYP2C9 (Homo sapiens, UniProt P11712); assay: CYP450 inhibition assay in human liver microsomes; assay type: in vitro ADME; conditions: 10 μM
T2 construct: tissue Lot No. 38292; host or cells: human liver microsomes
Method: (§3) Cytochrome P450 inhibition was evaluated in human liver microsomes (0.253 mg/mL, Lot No. 38292) using five specific probe substrates (CYP1A2, 10 μM phenacetin; CYP2D6, 5 μM dextromethorphan; and CYP3A4, 2 μM midazolam; 2C9, 5 μM Diclofenac; 2C19, 30 μM S-mephenytoin) and positive control in the presence of multiple concentrations of the test compound. After pre-warm at 37 °C for 10 min, the reaction was initiated by the addition of NADPH. The mixture was incubated at 37 °C for 10 min, terminated by the addition of cold stop solution (200 ng/mL tolbutamide and 200 ng/mL labetalol in acetonitrile). The samples were centrifuged, and the supernatants were analysed by LC − MS/MS.

CYP1A2 = target: T3, CYP1A2 (Homo sapiens, UniProt P05177); assay: CYP450 inhibition assay in human liver microsomes; assay type: in vitro ADME; conditions: 10 μM
T3 construct: tissue Lot No. 38292; host or cells: human liver microsomes
T3 sequence (P05177 1-516): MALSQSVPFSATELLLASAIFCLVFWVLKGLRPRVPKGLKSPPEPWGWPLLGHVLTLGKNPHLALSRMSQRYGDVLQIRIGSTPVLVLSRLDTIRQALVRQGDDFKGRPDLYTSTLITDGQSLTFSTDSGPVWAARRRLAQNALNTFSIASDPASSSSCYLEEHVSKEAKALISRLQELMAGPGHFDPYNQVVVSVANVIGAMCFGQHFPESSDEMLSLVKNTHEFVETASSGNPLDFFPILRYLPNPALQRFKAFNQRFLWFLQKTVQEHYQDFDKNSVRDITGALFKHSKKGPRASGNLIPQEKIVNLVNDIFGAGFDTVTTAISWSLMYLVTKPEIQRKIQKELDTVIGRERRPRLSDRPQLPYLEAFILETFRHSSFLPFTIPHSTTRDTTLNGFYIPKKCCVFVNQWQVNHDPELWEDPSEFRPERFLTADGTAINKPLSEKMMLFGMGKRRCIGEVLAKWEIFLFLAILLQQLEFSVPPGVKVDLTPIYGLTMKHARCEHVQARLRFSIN
Method: as §3

CYP2C19 = target: T4, CYP2C19 (Homo sapiens, UniProt P33261); assay: CYP450 inhibition assay in human liver microsomes; assay type: in vitro ADME; conditions: 10 μM
T4 construct: tissue Lot No. 38292; host or cells: human liver microsomes
Method: as §3

CYP3A4 = target: T5, CYP3A4 (Homo sapiens, UniProt P08684); assay: CYP450 inhibition assay in human liver microsomes; assay type: in vitro ADME; conditions: 10 μM
T5 construct: tissue Lot No. 38292; host or cells: human liver microsomes
Method: as §3

CYP2D6 = target: T6, CYP2D6 (Homo sapiens, UniProt P10635); assay: CYP450 inhibition assay in human liver microsomes; assay type: in vitro ADME; conditions: 10 μM
T6 construct: tissue Lot No. 38292; host or cells: human liver microsomes
Method: as §3

NCI-H1975 = assay: Cell proliferation assay (CellTiter-Glo), NCI-H1975; assay type: cell-based; conditions: Homo sapiens, 72 h exposure, mean ± SD of two experiments
Method: as §1, §2

T1 sequence (P42336 whole entry): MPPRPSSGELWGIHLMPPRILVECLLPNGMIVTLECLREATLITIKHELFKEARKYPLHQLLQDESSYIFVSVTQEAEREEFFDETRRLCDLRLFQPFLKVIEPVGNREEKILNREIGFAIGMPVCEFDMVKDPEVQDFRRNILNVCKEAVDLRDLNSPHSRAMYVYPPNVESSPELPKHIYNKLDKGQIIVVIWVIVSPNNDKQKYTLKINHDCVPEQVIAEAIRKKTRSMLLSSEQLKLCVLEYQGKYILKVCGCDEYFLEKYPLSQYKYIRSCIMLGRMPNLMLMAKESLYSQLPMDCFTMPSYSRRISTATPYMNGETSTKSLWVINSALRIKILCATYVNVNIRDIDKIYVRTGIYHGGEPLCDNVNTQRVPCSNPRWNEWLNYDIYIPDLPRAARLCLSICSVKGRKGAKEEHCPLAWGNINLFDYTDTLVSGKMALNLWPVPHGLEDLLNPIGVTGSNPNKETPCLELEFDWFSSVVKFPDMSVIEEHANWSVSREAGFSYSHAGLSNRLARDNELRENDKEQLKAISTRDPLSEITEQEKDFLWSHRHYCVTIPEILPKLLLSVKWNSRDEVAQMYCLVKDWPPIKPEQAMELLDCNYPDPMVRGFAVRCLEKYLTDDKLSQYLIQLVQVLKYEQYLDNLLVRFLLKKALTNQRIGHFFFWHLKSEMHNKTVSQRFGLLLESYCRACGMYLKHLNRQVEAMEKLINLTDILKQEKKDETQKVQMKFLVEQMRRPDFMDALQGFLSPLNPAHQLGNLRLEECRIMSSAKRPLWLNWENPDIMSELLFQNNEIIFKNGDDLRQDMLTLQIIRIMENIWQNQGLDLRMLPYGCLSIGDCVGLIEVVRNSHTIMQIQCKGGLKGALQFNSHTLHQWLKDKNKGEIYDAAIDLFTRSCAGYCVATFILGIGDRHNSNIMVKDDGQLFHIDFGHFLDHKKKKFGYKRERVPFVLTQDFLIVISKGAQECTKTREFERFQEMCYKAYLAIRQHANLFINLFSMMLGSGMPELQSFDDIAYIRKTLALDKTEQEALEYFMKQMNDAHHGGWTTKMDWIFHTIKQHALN
T1 sequence (P27986 whole entry partner): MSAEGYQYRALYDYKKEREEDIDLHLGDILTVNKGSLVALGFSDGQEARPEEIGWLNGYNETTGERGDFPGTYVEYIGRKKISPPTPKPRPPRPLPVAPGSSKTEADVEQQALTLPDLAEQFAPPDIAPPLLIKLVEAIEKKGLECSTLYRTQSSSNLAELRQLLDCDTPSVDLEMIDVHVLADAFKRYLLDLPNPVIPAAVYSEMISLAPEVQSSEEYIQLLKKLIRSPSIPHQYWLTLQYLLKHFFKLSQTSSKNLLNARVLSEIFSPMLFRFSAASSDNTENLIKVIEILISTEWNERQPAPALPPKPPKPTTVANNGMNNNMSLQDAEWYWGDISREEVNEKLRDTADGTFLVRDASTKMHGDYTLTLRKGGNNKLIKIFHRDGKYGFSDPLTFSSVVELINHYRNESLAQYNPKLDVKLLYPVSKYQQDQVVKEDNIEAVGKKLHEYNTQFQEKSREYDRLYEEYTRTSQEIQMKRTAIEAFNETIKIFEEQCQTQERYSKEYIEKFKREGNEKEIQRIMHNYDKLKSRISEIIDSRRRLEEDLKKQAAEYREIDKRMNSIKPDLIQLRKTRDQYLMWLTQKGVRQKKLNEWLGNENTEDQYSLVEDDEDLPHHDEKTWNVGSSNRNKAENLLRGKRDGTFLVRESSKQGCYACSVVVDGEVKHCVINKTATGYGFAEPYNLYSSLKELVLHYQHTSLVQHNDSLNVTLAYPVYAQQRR
T2 sequence (P11712 whole entry): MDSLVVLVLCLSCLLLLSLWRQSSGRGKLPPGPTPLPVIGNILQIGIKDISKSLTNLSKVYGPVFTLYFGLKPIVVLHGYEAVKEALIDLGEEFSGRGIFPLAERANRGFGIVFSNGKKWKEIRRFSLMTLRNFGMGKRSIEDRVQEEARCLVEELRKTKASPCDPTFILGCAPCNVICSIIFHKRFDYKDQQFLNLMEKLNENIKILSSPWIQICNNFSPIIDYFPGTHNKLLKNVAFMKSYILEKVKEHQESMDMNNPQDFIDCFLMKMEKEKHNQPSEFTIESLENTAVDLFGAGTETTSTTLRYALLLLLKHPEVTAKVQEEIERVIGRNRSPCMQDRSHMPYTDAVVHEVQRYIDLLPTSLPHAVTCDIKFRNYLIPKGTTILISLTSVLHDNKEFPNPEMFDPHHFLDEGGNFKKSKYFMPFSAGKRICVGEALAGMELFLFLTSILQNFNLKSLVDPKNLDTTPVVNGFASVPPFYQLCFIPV
T4 sequence (P33261 whole entry): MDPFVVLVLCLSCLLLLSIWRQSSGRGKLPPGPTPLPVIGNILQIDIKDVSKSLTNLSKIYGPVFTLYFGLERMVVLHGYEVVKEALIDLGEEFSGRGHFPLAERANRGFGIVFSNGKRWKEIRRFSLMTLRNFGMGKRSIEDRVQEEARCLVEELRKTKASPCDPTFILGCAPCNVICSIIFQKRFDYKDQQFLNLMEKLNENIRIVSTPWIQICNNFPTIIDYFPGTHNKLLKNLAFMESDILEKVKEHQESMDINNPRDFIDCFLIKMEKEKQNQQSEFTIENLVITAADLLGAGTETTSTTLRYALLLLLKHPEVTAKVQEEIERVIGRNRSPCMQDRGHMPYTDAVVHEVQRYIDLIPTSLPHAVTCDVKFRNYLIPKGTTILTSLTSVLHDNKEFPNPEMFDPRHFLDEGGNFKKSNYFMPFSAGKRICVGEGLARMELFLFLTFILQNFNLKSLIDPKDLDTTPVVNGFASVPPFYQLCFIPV
T6 sequence (P10635 whole entry): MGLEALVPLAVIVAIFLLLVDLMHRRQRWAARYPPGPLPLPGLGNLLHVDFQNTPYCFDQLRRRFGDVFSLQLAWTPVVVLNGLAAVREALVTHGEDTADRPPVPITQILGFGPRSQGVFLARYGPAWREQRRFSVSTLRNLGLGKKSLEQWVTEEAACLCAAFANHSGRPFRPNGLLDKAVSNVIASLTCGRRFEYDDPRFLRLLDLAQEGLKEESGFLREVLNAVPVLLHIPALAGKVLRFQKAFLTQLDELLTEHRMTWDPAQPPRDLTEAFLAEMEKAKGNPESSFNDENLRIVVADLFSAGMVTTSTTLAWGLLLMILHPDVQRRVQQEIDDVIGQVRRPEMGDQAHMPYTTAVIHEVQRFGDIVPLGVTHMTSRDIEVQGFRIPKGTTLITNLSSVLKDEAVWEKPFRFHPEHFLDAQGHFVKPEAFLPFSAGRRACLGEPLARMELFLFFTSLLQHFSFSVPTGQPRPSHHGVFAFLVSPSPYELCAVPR
T5 sequence (P08684 whole entry): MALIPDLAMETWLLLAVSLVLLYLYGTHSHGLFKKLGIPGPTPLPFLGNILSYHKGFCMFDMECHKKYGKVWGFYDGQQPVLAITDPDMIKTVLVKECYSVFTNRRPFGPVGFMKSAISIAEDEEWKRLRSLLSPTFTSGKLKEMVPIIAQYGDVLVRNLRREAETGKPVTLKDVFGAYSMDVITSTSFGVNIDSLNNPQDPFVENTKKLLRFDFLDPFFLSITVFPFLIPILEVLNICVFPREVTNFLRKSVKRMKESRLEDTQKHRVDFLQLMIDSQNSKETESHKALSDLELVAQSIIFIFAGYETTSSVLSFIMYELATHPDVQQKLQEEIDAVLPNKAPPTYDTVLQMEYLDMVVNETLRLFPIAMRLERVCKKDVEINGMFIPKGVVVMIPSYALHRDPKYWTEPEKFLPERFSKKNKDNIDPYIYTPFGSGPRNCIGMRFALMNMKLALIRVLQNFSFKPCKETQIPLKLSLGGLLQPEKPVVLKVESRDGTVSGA

COc1ncc(-c2cc(C)cn3cc(C(=O)N4CCCC4)nc23)cc1NS(=O)(=O)c1ccc(F)cc1 [Compound 35, 4-Fluoro-N-(2-methoxy-5–(6-methyl-2-(pyrrolidine-1-carbonyl)Imidazo[1,2-a]pyridin-8-yl)pyridin-3-yl)benzenesulfonamide]
IC50 (NCI-H460): 17.7 ± 2 µM
IC50 (PI3Kα; mean ± SD of two experiments): 0.15 ± 0.02 µM
inhibition at 10 µM (PI3Kα; PI3Kα, compound 10 μM, mean ± SD of three determinations, read-out: % Inhibition at 10 μM): > 85%
Mean Pe ([1]; 10 μM): higher than 10 nm/s
Papp at 4 h, 10 μM ([1]; read-out: Mean Pe): 1.54 ×10⁻⁶ cm/s
Papp at 4 h, 10 μM ([1]; read-out: Permeability): > 1 ×10⁻⁶ cm/s
CYP2C9 % inhibition (CYP2C9): 30.6%
CYP1A2 % inhibition (CYP1A2): 9.8%
CYP2C19 % inhibition (CYP2C19): 25.9%
CYP3A4 % inhibition (CYP3A4): 42.6%
CYP2D6 % inhibition (CYP2D6): 13.5%
IC50 (NCI-H1975): 32.1 ± 2.4 µM
